Data set [1] concerns the target GST-MEK (p45MEK) / GST-MAPK (p44MAP kinase) (Homo sapiens, UniProt Q02750). Description: APK IC50; cascade assay for inhibitors of the MAP kinase pathway. It counts as biochemical. On the procedure:
According to one aspect of the invention, the compounds are MEK inhibitors. MEK inhibition assays include the cascade assay for inhibitors of MAP kinase pathway described at column 6, line 36 to column 7, line 4 of U.S. Pat. No. 5,525,625 and the in vitro MEK assay at column 7, lines 4-27 of the same patent, the entire disclosure of which is incorporated by reference (see also Examples 5-10 below).
Incorporation of ^32P into myelin basic protein (MBP) is assayed in the presence of a glutathione S-transferase fusion protein containing p44MAP kinase (GST-MAPK) and a glutathione S-transferase fusion protein containing p45MEK (GST-MEK). The assay solution contains 20 mM HEPES, pH 7.4, 10 mM MgCl2, 1 mM MnCl2, 1 mM EGTA, 50,μM [γ-^32P]ATP, 10 μg GST-MEK, 0.5 μg GST-MAPK and 40 μg MBP in a final volume of 100 μL. Reactions are stopped after 20 minutes by addition of trichloroacetic acid and filtered through a GF/C filter mat. ^32P retained on the filter mat is determined using a 120S Betaplate. Compounds are assessed at 10 μM for ability to inhibit incorporation of ^32P.
To ascertain whether compounds are inhibiting GST-MEK or GST MAPK, two additional protocols are employed. In the first protocol, compounds are added to tubes containing GST-MEK, followed by addition of GST-MAPK, MBP and [β-^32P]ATP. In the second protocol, compounds are added to tubes containing both GST-MEK and GST-MAPK, followed by MBP and [β-^32P]ATP.
Compounds that show activity in both protocols are scored as MAPK inhibitors, while compounds showing activity in only the first protocol are scored as MEK inhibitors.

In the next data set the test system is C26 Cells. In words: C26 Cells. Type of data set: cell-based.

Drawing on patent US6750217B2, “Benzenesulfonamide derivatives and their use as MEK inhibitors” (Warner-Lambert Company, priority 1999, dated 2004), this text covers IC50 and melting point for ten molecules.

Molecules are shown by their SMILES. Bounds are passed on as bounds.

Sequence of GST-MEK (p45MEK) / GST-MAPK (p44MAP kinase) (Q02750 whole entry): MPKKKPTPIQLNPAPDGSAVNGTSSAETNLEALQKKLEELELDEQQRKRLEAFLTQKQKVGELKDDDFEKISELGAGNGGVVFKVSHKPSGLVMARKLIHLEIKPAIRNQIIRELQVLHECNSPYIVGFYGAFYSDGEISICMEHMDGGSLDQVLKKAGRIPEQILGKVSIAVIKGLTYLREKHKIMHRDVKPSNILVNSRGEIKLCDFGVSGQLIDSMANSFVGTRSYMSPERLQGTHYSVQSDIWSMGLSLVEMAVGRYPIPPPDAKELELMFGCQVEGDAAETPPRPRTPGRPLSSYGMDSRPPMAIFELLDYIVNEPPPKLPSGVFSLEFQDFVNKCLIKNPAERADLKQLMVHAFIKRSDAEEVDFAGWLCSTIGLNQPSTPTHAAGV

By IC50 is commonly meant the midpoint of a concentration-inhibition curve. Higher therefore signals lower potency. In turn, `COC(=O)c1cc(S(=O)(=O)N(C)C)c(F)c(F)c1Nc1ccc(I)cc1Cl` [PD 193846, 2-(2-Chloro-4-iodo-phenlylamino)-5-dimethylsulfamoyl-3,4-difluoro-benzoic acid methyl ester] showed a half-inhibitory concentration (IC50) in data set [1] of 222 nM. In other words, the sub-micromolar range.
On to `CN(C)S(=O)(=O)c1cc(C(=O)O)c(Nc2ccc(I)cc2Cl)c(F)c1F` [PD 224339, 2-(2-Chloro-4-iodo-phenylamino)-5-dimethylsulfamoyl-3,4-difluoro-benzoic acid], for which the IC50 is 283 nM in data set [1] and over 10000 nM with C26 Cells.
As a reminder, the melting point is the temperature, or range, at which the solid turns liquid. With `NS(=O)(=O)c1cc(C(=O)NOCC2CC2)c(Nc2ccc(I)cc2Cl)c(F)c1F` [PD 219622, 2-(2-Chloro-4-iodo-phenylamino)-N-cyclopropylmethoxy-3,4-difluoro-5-sulfamoyl-benzamide], the melting point was 219 to 227 °C (dec.). Besides, inhibition in data set [1] was half-maximal at 186 nM (IC50). In the data set with C26 Cells, this molecule showed a half-maximal inhibitory concentration (IC50) of 1600 nM.
In data set [1], `COc1ccc(CN(Cc2ccc(OC)cc2)S(=O)(=O)c2cc(C(=O)NOCC3CC3)c(Nc3ccc(I)cc3Cl)c(F)c2F)cc1` [PD 218774, 5-[Bis-(4-methoxy-benzyl)-sulfamoyl]-2-(2-chloro-4-iodo-phenylamino)-N-cyclopropylmethoxy-3,4-difluoro-benzamide] returned an IC50 of over 3000 nM.
Take `Cc1cc(I)ccc1Nc1c(C(=O)O)cc(S(=O)(=O)N(C)C)c(F)c1F` [PD 224340, 5-Dimethylsulfamoyl-3,4-difluoro-2-(4-iodo-2-methyl-phenylamino)-benzoic acid]: the IC50 in data set [1] was 441 nM; in the data set with C26 Cells, over 10000 nM.
As to `NS(=O)(=O)c1cc(C(=O)NO)c(Nc2ccc(I)cc2Cl)c(F)c1F` [PD 224213, 2-(2-Chloro-4-iodo-phenylamino)-3,4-difluoro-N-hydroxy-5-sulfamoyl-benzamide], the melting point is 230 to 236 °C (dec.). In data set [1], this molecule had a 50% inhibitory concentration (IC50) of 122 nM. Further, the IC50 in the data set on C26 Cells turned out to be 9100 nM.
As for `CN(C)S(=O)(=O)c1cc(C(=O)NOCC2CC2)c(Nc2ccc(I)cc2Cl)c(F)c1F` [PD 250253, 2-(2-Chloro-4-iodo-phenylamino)-N-cyclopropylmethoxy-5-dimethylsulfamoyl-3,4-difluoro-benzamide], the melting point is 222 to 225 °C (dec.). For the same molecule, in data set [1], the IC50 was determined as 936 nM.
In data set [1], `CN(Cc1cccnc1)S(=O)(=O)c1cc(C(=O)O)c(Nc2ccc(I)cc2Cl)c(F)c1F` [PD 219795, 2-(2-Chloro-4-iodo-phenylamino)-3,4-difluoro-5-(methyl-pyridin-3-ylmethyl-sulfamoyl)-benzoic acid] yielded an IC50 of over 3000 nM.
`Cc1cc(I)ccc1Nc1c(C(=O)NOCC2CC2)cc(S(=O)(=O)N(C)C)c(F)c1F` [PD 252745, N-Cyclopropylmethoxy-5-dimethylsulfamoyl-3,4-difluoro-2-(4-iodo-2-methyl-phenylamino)-benzamide] displayed a melting point of 171 to 172 °C. The IC50 in data set [1] came out at 3700 nM.
Regarding `NS(=O)(=O)c1cc(C(=O)O)c(Nc2ccc(I)cc2Cl)c(F)c1F` [PD 215730, 2-(2-Chloro-4-iodo-phenylamino)-3,4-difluoro-5-sulfamoyl-benzoic acid], the melting point was 295 to 296 °C (dec.). In data set [1], this molecule came in with an IC50 of 781 nM.
